Results as given in patent US20110123600A1, “Use of alkylureas for treating acne” (priority 2005, published 2011).

Assays:
Streptococcus pyogenes = assay: Aerobic plate count after one hour contact with butylurea solution; assay type: cell-based; settings: 0.4M BU, vs saline control
Description: (§1) Preparation of Sample: 11.6 grams of butyl urea (BU) sample was weighed accurately and dissolved in de-ionized water to 100 ml into 100 ml volumetric flask and mixed to form a 1M (11.6% w/v) solution. Then, 10.0 ml of the 1M solution was mixed with 12.7 ml de-ionized water to form a 0.44M (5.1% w/v) solution. (10.0 ml×1.0M÷22.7 ml=0.44M). Finally, the 0.44M solution was filtered through sterile syringe filters to sterilize.
(§2) Procedure: For the 0.4M butylurea solutions, 4.5 ml was aliquoted into seven (7) 16×150 mm sterile glass test tubes. 4.5 ml sterile physiological saline was also aliquoted into seven (7) 16×150 […] sterile glass test tubes as a control.
(§3) 0.6 ml of culture suspension was inoculated into 0.44M BU and saline control tube for each organism tested and mixed. After one hour contact time a 1.0 ml sample culture mixer was diluted serially into 10^6 into 9.0 ml GBL Stat Broth (TSB; 0.5% Leethen; 4% Tween 20 and 0.1% […]).
(§4) One ml Aerobic Plate Count was performed from each dilution tubes using Trypticase Soy Agar. Plates were incubated at 37±° C. for 48 hours. Except Candida albicans plates were poured with Sabourad Dextrose Agar and incubated at 20 to 25° C. for 5 to 7 days. Colonies were counted using a Quebec Colony Counter.

Staphylococcus aureus = assay: as above; assay type: cell-based; settings: 0.4M BU, vs saline control
Description: as §1, §2, §3, §4

Candida albicans = assay: Plate count after one hour contact with butylurea solution; assay type: cell-based; settings: 0.4M BU, vs saline control
Description: as §1, §2, §3, §4

[1] = system: inflamed cystic lesions of acne; assay: BU in polymer gel applied topically to patients with inflamed cystic lesions of acne; assay type: in vivo; settings: polymer gel releasing 0.4 to 0.5 molar BU, 11 patients
Description: BU in polymer gels: BU incorporated in a polymer gel designed to release the chemical within 30 minutes to 3 hours was administered topically to 11 patients with inflamed cystic lesions of acne. The BU end concentration to be released was between 0.4 to 0.5 molar. Applications to the lesions alone were made 3× daily for 1 week. […] The purulent discharge as well as the inflammatory component of all lesions resolved often within 24 hours.

acne lesions = assay: BU aqueous solution applied to acne lesions in adolescents; assay type: in vivo; settings: 0.5 molar (5.8% w/v) aqueous solution, twice daily, 5 adolescents
Description: BU in an squeous solution: A 0.5 molar (5.8% w/v) solution of BU was applied twice daily with Q tips to acne lesions in 5 adolescents. BU was applied to cystic purulent lesions, to non cystic lesions with erythema and to early lesions with minimal inflammation. The inflammatory response resolved in all lesions within 24-48 hours, whereas purulent cystic lesions healed without scarring within 3-7 days.

CCCCNC(N)=O [BU, butyl urea]
log Reduction in bacterial count (Streptococcus pyogenes): 2 log Reduction | Reduction in bacterial count (Staphylococcus aureus): Not Active | log Reduction in count (Candida albicans): 0.4 log Reduction | Local adverse reactions ([1]; topical 3x daily for 1 week): no local adverse reactions were noted | Resolution of lesions by the end of the treatment ([1]; topical 3x daily for 1 week): Most of the lesions resolved | Time to resolution of purulent discharge and inflammatory component of all lesions ([1]; topical 3x daily, 'often'): ≤ 24 h | Time to healing of purulent cystic lesions without scarring (acne lesions): 3 to 7 days | Time to resolution of inflammatory response in all lesions (acne lesions): 24 to 48 h
